As usually defined, the Kd is the free concentration of one partner at which half of the binding sites on the other are occupied at equilibrium, for simple one-to-one binding. Read a high Kd as a looser complex.

The target of this assay is β-tubulin (Sus scrofa, UniProt P02554+Q2XVP4). Briefly: X-ray crystal structure. In kind it is binding.
Chain of β-tubulin (Q2XVP4 whole entry): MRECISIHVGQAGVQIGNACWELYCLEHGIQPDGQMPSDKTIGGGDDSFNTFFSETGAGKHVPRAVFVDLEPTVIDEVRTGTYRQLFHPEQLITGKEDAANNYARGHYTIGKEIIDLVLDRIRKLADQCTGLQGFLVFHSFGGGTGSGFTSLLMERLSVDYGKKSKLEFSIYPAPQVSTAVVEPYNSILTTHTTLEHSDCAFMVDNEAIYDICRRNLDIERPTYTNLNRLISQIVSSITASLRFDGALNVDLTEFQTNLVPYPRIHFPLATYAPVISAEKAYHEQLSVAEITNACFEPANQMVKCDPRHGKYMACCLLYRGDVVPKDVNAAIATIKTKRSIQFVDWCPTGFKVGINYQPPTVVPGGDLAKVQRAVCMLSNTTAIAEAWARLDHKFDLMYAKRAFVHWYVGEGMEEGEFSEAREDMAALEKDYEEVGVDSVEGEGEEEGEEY
Chain of β-tubulin (P02554 whole entry): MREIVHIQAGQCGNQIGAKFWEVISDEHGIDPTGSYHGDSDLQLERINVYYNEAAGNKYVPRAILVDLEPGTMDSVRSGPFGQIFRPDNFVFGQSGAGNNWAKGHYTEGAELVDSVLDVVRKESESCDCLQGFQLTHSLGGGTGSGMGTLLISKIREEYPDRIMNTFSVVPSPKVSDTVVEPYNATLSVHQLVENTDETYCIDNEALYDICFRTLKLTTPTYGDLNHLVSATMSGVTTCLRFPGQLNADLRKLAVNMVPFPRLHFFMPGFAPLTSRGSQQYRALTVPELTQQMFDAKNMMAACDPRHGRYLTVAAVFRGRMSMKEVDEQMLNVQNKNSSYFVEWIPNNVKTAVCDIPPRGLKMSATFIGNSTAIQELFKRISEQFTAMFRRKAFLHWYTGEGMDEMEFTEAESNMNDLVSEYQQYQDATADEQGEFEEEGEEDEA

`CCCCc1ccc2[nH]c(NC(=O)OC)nc2c1` [parbendazole] gave a dissociation constant Kd of 3.39 µM. This counts as single-digit micromolar.

The record behind these values is publication PMC9033620 (RSC Advances, 2021).
